# Patent US4977161A, “Isoxazolopyridine type mevalonolactones” (Nissan Chemical Industries, Ltd., priority 1988, dated 1990)
# Columns and labels:
# [1] = tested on: cholesterol biosynthesis in Hep G2 cells; assay: Test B-1: Inhibition of cholesterol biosynthesis in culture cells (Hep G2); format: cell-based; settings: Homo sapiens, HepG2, 100×10^-9 M/l, [2-14C]sodium acetate added at 0 hr, read-out: Inhibition activities by Test B-1
# Description: Hep G2 cells at over 5th passage were seeded to 12 well plates and incubated with Dulbecco's modified Eagle (DME) medium containing 10% of fetal bovine serum (FBS) at 37° C., 5% CO2 until cells were confluent for about 7 days. Cells were exposed to the DME medium containing 5% of lipoprotein deficient serum (LpDS) prepared by ultracentrifugation method for over 24 hours. Medium was changed to 0.5 ml of fresh 5% LpDS containing DME before assay and 10 μl of test compound solution dissolved in water or DMSO were added. 0.2 μCi of [2-^14 C]sodium acetate (20 μl) was added at 0 hr(B-1) or 4 hrs(B-2) after addition of compounds. After 4 hrs further incubation with [2-^14 C] sodium acetate, medium was removed and cells were washed with phosphate buffered saline (PBS) chilled at 4° C. Cells were scraped with rubber policeman and collected to tubes with PBS and digested with 0.2 ml of 0.5 N KOH at 37° C. Aliquot of digestion was used for protein analysis and remaining was saponified with 1 ml of 15% EtOH-KOH at 75° C. for 1 hour. Nonsaponifiable lipids were extracted with petroleum ether and ^14 C radioactivity was counted. Counts were revised by cell protein and indicated with DPM/mg protein. Inhibitory activity of compounds was indicated with IC50.
# With respect to the compounds of the present invention, the inhibitory activities against the cholesterol biosynthesis in which HMG-CoA reductase serves as a rate limiting enzyme, were measured by the above Test A and B. The results are shown in Tables 2 and 3.
# In Table 3, the inhibition activities of the test compounds at a concentration of 100×10^-9 M/l, are shown.
# [2] = tested on: cholesterol biosynthesis in which HMG-CoA reductase serves as a rate limiting enzyme; assay: Test A: Inhibition of cholesterol biosynthesis from acetate in vitro; format: biochemical, male Wistar rat; settings: for Relative activities by Test A: based on the activities of CS-514 by Test A being evaluated to be 1
# Description: Enzyme solution was prepared from liver of male Wistar rat billialy connulated and discharged bile for over 24 hours. Liver was cut out at mid-dark and microsome and supernatant fraction which was precipitable with 40-80% of solution of ammonium sulfate (sup fraction) were prepared from liver homogenate according to the modified method of Knauss et. al.; Kuroda, M., et. al., Biochim. Biophys. Acta, 489, 119 (1977). For assay of cholesterol biosynthesis, microsome (0.1 mg protein) and sup fraction (1.0 mg protein) were incubated for 2 hours at 37° C. in 200 μl of the reaction mixture containing ATP; 1 mM, Glutathione; 6 mM, Glucose-1phosphate; 10 mM, […]; 0.25 mM, NADP; 0.25 mM, CoA; 0.04 mM and 0.2 mM [2-14C]sodium acetate (0.2 μCi) with 4 μl of test compound solution dissolved in water or dimethyl sulfoxide. To stop reaction and saponify, 1 ml of 15% EtOH-KOH was added to the reactions and heated at 75° C. for 1 hour. Nonsaponifiable lipids were extracted with petroleum ether and incorporated ^14 C radioactivity was counted. Inhibitory activity of compounds was indicated with IC50.
# [3] = tested on: cholesterol biosynthesis; assay: Test C: Inhibition of cholesterol biosynthesis in vivo; design: species or system male Sprague-Dawley rats; settings: oral, 0.2 mg/kg
# Description: Male Sprague-Dawley rats weighing about 150 g were fed normal Purina chow diet and water ad libitum, and exposed to 12 hours light/12 hours dark lighting pattern
# (2:00 PM -2:00 AM dark) prior to use for in vivo inhibition test of cholesterol biosynthesis. Animals were separated groups consisting of five rats as to be average mean body weight in each groups. Test compounds at dosage of 0.02-2.0 mg/kg body weight (0.4 ml/100 g body weight), were dissolved in water or suspended in 0.5% methyl cellulose and orally administered at 2-3 hours before mid-dark (8:00 PM), while cholesterol biosynthesis reaches to maximum in rats. As control, rats were orally administered only water or vehicle. At 90 minutes after sample administration, rats were injected intraperitoneally with 10 μCi of [2-^14 C]sodium acetate at volume of 0.2 ml per one. 2 Hours later, blood samples were obtained and serum were separated immediately. Total lipids were extracted according to the method of Folch et al. and saponified with EtOH-KOH. Nonsaponifiable lipids were extracted with petroleum ether and radio activity incorporated into nonsaponifiable lipids was counted.
# Inhibitory activity was indicated as percent decrease of counts in testing groups (DPM/2 ml serum/2 hours) from that in control group.
# [4] = tested on: ICR male mice; assay: Test D: Acute toxicity; format: in vivo; settings: oral, 0.5% CMC suspension, group of three mice; dose not given
# Description: A 0.5% CMC suspension of a test compound was orally administered to ICR male mice (group of three mice). The acute toxicity was determined based on the mortality after seven days.
Relative activities by Test A [2],SMILES,inhibition at 0.1 µM [1] [%],percent decrease of counts relative to the control group (DPM/2 ml serum/2 hours) [3] [%],"acute toxicity, mortality after seven days [4]","IC50 ([2]; rat liver microsome and sup fraction, [2-14C]sodium acetate, 2 hours at 37° C.) [nM]"
,"CCOC(=O)CC(=O)CC(O)/C=C/c1c(C(C)C)nc2onc(C)c2c1-c1ccc(F)cc1 (stereo not drawn) [Compound II-1, Ethyl (E)-7-[4'-(4""-fluorophenyl)-3'-methyl-6'-(1""-methylethyl)isoxazolo[-5,4-b]pyridin-5-yl]-5'-hydroxy-3-oxohepto-6-enoate]",52.6,,,
1.3,"Cc1noc2nc(C(C)C)c(/C=C/C(O)CC(O)CC(=O)O)c(-c3ccc(F)cc3)c12 (stereo not drawn) [Compound I-5-1, Sodium (E)-7-[4'-(4""-fluorophenyl)-3'-methyl-6'-(1""-methylethyl)isoxazolo[5,4-b]pyridin-5'-yl]-3,5-dihydroxyhept-6-enoate]",,,,
1.6,CCOC(=O)CC(O)CC(O)/C=C/c1c(C(C)C)nc2onc(C)c2c1-c1ccc(F)cc1 (stereo not drawn) [Compound I-1-1],50.1,,,
,CCOC(=O)CC(O)CC(O)/C=C/c1c(C(C)C)nc2onc(-c3ccccc3)c2c1-c1ccc(F)cc1 (stereo not drawn) [Compound I-1-2],57.3,,,
,"CC[C@H](C)C(=O)O[C@H]1C[C@H](O)C=C2C=C[C@H](C)[C@H](CC[C@@H](O)C[C@@H](O)CC(=O)O)[C@H]21 [CS-514, reference compound]",18.4,34,,9

SMILES,Relative activities by Test A [2],inhibition at 0.1 µM [1] [%],percent decrease of counts relative to the control group (DPM/2 ml serum/2 hours) [3] [%],"acute toxicity, mortality after seven days [4]","IC50 ([2]; rat liver microsome and sup fraction, [2-14C]sodium acetate, 2 hours at 37° C.) [nM]"
CC(C)c1nc2onc(-c3ccccc3)c2c(-c2ccc(F)cc2)c1/C=C/C(O)CC(O)CC(=O)O (stereo not drawn) [Compound I-5-2],0.6,43.2,34.3,only one animal of the three animals died,
